Measured values taken from ChEMBL document CHEMBL1201862, “PubChem BioAssay data set” (2004).
Active and inactive are the calls of the source.

Columns and labels:
Protein RecA = target: T1, Protein RecA (Mycobacterium tuberculosis, UniProt P9WHJ3); experiment: Fluorescence Cell-Free Homogeneous Dose Retest to Identify Inhibitors of RecA-Intein Splicing Activity. [Related pubchem assays (depositor defined):AID2097, AID2223, AID489010, AID492950]; type: functional
T1 sequence (P9WHJ3 whole entry): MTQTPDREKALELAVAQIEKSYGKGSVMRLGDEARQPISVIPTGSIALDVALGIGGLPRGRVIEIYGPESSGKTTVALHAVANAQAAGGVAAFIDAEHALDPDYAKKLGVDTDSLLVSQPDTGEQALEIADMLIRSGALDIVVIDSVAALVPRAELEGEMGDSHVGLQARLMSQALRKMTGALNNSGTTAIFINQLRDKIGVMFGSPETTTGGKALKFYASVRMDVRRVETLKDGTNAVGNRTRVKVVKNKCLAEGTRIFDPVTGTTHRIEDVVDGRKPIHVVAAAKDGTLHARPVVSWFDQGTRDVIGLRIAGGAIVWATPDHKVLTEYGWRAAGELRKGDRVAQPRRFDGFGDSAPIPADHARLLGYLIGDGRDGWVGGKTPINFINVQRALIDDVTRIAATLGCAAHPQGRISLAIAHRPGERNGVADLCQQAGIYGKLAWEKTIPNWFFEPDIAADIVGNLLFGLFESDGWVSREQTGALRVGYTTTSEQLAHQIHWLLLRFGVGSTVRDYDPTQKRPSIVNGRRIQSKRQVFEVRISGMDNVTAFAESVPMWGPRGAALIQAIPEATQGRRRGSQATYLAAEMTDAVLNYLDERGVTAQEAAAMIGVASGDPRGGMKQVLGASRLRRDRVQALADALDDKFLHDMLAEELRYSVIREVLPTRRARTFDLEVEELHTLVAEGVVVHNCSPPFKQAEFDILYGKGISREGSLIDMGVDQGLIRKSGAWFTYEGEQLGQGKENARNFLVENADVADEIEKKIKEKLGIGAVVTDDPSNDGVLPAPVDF

[1] = Luminescence Cell-Based Dose Retest to Confirm Inhibitors of Cancer Stem Cells. [Related pubchem assays (depositor defined):AID2717, AID2721]; type: functional; settings: Homo sapiens
[2] = off-target signal loss in HeLa-CEM21 co-culture – HeLa F-luc CTL cells, cherry-picked, counter-screen for HIV-1 Env fusion inhibitor project, dose response (AID 652040); type: functional, cell-based;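 note: potency for signal decrease marking cytotoxic or nonspecific inhibition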
[3] = viability loss in CEM21 cells – cell-based, CellTiter-Glo luminescence, cherry-picked, cytotoxicity control for viral fusion inhibitor project, dose response (AID 652042); type: functional;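 note: potency for signal decrease meaning cytotoxicity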
[4] = blockers of HIV-1 envelope-mediated cell-cell fusion – cherry-pick, dose response (AID 652057); type: functional, cell-based
[5] = HIV-1 AD8 envelope cell-cell fusion blockers – cherry-pick, dose response (AID 652062); type: functional, cell-based;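 note: luciferase signal from cell-cell fusion driven by HIV-1 clade B AD8 Env; potency is for inhibitors of fusion seen as a drop in luminescence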
[6] = target: T2, Replicative DNA helicase DnaB (Mycobacterium tuberculosis, UniProt P9WMR3); experiment: DnaB intein splicing inhibitors, dose response, biochemical, cell-free fluorescence (AID 449749); type: functional
T2 sequence (P9WMR3 whole entry): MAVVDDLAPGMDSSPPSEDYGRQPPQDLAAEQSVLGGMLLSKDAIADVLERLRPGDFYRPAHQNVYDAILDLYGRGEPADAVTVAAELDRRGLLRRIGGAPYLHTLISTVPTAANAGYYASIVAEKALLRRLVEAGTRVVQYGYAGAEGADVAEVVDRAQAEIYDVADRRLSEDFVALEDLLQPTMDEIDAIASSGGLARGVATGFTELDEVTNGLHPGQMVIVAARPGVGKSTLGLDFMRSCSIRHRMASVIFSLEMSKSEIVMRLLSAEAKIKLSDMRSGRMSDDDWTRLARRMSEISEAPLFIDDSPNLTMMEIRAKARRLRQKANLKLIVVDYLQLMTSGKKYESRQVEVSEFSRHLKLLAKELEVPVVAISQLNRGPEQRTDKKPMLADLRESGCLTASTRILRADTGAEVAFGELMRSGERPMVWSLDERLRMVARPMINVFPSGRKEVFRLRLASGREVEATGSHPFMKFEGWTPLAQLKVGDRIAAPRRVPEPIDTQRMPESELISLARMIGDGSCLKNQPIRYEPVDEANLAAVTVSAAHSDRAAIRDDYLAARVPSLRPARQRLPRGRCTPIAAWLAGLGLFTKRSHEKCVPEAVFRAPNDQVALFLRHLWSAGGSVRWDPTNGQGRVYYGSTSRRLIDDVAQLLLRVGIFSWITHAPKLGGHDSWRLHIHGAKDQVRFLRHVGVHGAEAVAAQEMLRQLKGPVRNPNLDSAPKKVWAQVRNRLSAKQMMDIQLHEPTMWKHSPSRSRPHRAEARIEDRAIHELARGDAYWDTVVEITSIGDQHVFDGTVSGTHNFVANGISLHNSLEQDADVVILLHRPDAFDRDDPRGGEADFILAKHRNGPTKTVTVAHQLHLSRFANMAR

[7] = mouse fibroblast viability loss – cell-based, cherry-pick samples, set 2, cytotoxicity control for T. cruzi growth inhibitor project, dose response (AID 651817); type: functional; settings: NIH3T3
[8] = IGROV1 cell killing – plate reader, dry powder samples, PAX8 inhibitor project, dose response (AID 743043); type: functional, cell-based; settings: IGROV-1
[9] = blockers of HIV-1 ZM109 envelope-driven cell-cell fusion – HeLa effector, CEM target cells, luciferase, cherry-pick, dose response (AID 652058); type: functional, cell-based;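 note: luciferase signal from HIV-1 Env mediated cell-cell fusion of effector and target cells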
Paired box protein Pax-8 = Paired box protein Pax-8 (Homo sapiens, UniProt Q06710); experiment: PAX8 transcriptional activity inhibition in RMG-I – RMG-I cells, luciferase, cherry-pick, dose response (AID 687027); type: functional, cell-based;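 note: luciferase reporter driven by Pax8 target thyroperoxidase promoter measured by SteadyGlo luminescence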
Paired box protein Pax-8, sequence (Q06710 whole entry): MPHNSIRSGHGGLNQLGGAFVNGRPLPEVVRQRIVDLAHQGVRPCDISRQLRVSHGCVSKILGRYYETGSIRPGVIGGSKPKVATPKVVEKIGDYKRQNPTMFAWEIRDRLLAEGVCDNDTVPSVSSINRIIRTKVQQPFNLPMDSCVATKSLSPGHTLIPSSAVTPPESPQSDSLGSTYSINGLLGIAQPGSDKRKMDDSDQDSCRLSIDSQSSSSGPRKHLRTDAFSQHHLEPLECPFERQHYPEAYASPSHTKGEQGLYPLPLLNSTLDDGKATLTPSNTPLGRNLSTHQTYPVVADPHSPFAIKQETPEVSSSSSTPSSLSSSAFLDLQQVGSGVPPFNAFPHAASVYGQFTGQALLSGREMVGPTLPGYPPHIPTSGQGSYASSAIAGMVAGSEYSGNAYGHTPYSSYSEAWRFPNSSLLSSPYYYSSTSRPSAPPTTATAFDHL

[10] = OVCAR-3 cell viability loss – plate reader, dry powder samples, PAX8 inhibitor project, dose response (AID 743044); type: functional, cell-based
[11] = A2780 cell killing – plate reader, dry powder samples, cytotoxicity control, dose response (AID 743046); type: functional, cell-based
[12] = OVCAR8 cell viability loss – plate reader, dry powder samples, PAX8 project, dose response (AID 743197); type: functional, cell-based; settings: OVCAR-8
[13] = viability loss in HepG2 hepatoma cells – cell-based, ATP luminescence, cherry-pick, activator set 2, cytotoxicity control, dose response (AID 1053143); type: functional
[14] = blockers of bursicon-stimulated LGR2 cAMP reporter – cell-based, HEK293, CRE-luciferase reporter, cherry pick, set 2, dose response (AID 743343); type: functional;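 note: transfected cells were stimulated with diluted bursicon conditioned medium after compound addition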
[15] = blockade of melanocortin 4 receptor signaling – cell-based, plate reader, cherry pick, counter-screen for LGR2 antagonist project, dose response (AID 743444); type: functional;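 note: transfected HEK 293 cells stimulated with alpha-MSH peptide; potency of inhibitors of the alpha-MSH evoked signal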
[16] = A549 cell cytotoxicity, dose response, cytotoxicity control, plate reader, cherry-pick, antagonist series (AID 743412); type: functional, cell-based
[17] = target: T3, Histone-lysine N-methyltransferase NSD2 (Homo sapiens, UniProt O96028); type: biochemical
T3 sequence (O96028 whole entry): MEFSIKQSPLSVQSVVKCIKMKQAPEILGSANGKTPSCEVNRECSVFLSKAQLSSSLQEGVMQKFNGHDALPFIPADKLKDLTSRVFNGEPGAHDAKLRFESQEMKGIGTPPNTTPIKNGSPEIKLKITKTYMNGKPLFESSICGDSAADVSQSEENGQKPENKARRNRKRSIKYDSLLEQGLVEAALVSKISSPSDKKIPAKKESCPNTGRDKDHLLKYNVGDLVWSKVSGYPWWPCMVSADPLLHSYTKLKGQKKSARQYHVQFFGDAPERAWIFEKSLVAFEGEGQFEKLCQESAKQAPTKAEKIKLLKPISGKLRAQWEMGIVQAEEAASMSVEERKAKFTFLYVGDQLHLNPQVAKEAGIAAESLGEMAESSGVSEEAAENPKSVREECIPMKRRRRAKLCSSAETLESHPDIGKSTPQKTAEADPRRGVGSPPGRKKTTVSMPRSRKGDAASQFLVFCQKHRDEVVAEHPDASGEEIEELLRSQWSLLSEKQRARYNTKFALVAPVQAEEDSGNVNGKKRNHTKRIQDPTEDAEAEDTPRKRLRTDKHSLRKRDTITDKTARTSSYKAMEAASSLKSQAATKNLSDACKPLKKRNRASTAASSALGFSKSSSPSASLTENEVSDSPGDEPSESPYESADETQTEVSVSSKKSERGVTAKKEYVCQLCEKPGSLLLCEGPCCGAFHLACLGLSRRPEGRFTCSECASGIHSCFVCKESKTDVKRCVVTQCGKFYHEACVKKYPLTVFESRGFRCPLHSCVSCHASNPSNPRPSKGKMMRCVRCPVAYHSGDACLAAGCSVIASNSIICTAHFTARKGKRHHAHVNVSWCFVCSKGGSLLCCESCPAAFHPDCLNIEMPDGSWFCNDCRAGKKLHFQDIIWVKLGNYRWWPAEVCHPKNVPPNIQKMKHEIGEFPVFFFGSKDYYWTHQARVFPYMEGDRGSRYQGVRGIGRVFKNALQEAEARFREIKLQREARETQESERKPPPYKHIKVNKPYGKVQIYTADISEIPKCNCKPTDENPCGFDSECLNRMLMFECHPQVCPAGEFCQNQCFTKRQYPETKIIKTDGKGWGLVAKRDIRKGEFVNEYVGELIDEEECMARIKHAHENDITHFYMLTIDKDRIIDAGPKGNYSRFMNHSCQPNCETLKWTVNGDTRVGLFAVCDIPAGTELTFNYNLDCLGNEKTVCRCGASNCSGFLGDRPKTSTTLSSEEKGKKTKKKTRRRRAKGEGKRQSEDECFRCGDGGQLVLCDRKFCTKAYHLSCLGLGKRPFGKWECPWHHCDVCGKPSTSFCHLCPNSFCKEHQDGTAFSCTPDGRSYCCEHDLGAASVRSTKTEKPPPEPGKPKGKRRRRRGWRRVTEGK

[18] = viability loss in HeLa cells – cytotoxicity control for MgcRacGAP inhibitor project, dose response (AID 624300); type: functional
[19] = HGIII-sPLA2 enzyme inhibition potency – biochemical, QFRET, IC50, dose response (AID 743457);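 note: green fluorescence rise as the enzyme cleaves BODIPY PC-A2 in liposomes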
[20] = target: T4, Rac GTPase-activating protein 1 (Homo sapiens, UniProt Q9H0H5); experiment: blockers of MgcRacGAP-driven Rac1 GTP hydrolysis – biochemical, ADP Hunter fluorescence, primary and confirmatory, confirmation (AID 624330); type: functional
T4 sequence (Q9H0H5 whole entry): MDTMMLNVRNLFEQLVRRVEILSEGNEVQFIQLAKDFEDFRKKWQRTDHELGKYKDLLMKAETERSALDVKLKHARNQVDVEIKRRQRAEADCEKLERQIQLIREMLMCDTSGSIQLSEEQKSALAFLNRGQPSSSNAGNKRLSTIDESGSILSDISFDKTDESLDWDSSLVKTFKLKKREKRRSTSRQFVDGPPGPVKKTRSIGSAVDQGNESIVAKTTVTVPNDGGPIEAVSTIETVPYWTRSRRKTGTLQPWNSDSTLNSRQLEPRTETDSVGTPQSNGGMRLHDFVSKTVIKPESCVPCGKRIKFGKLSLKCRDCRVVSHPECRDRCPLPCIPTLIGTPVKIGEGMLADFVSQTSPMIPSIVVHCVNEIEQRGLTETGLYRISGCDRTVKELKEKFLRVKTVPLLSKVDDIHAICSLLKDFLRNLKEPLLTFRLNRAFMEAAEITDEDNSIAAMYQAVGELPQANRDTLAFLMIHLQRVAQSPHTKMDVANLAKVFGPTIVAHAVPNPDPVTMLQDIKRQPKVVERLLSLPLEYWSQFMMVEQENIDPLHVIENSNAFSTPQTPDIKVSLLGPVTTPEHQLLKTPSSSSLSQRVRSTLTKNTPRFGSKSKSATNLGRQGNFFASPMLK

[21] = target: T5, DNA repair protein RAD52 homolog (Homo sapiens, UniProt P43351); type: functional, biochemical
T5 sequence (P43351 whole entry): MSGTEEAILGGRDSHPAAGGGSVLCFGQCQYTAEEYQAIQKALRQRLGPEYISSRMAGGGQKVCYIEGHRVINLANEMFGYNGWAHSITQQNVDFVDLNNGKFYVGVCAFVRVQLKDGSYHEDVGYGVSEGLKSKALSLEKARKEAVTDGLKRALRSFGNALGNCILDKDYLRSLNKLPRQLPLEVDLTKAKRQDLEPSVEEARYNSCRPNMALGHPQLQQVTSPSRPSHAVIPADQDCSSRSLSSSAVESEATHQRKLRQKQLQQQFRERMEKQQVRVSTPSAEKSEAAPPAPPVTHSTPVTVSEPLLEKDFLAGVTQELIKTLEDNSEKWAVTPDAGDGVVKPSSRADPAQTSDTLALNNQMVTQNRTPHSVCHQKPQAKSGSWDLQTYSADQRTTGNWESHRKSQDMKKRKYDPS

Nonstructural protein 1 = Nonstructural protein 1 (Influenza A virus, UniProt Q194T2); type: functional, Influenza A virus (A/California/07/2009(H1N1))
Nonstructural protein 1, sequence (Q194T2 whole entry): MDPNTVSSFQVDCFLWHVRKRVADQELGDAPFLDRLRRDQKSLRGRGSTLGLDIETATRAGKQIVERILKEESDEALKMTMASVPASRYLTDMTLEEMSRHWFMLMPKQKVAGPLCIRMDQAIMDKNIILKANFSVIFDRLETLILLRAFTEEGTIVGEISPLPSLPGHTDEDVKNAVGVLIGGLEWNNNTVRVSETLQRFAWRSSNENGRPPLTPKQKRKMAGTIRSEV

[22] = anti-trypanosomal activity in BESM host cells – imaging, CA-I/72 strain, bovine embryo skeletal muscle, dry powder, dose response (AID 651885); type: functional, cell-based
[23] = T. cruzi growth inhibition in host cells, dose response, cell-based, plate reader, dry powder, set 2 (AID 652275); type: functional

COc1ccccc1/C=C/C1(C(=O)NC2CCCC2)CC(=O)N1c1ccc(F)cc1 (stereo not given)
active: EC50 (Protein RecA) 2.82 µM | AC50 [1] 6.36 µM | AC50 [2] 5.48 µM | AC50 [3] 12.7 µM | AC50 [4] 3.35 µM | AC50 [5] 25.2 µM | AC50 [6] 3.57 µM

C[C@@H]1CN([C@@H](C)CO)C(=O)Cc2cc(NS(=O)(=O)c3ccc(F)cc3)ccc2O[C@H]1CN(C)Cc1ccc(Cl)c(Cl)c1
active: AC50 [7] 7.33 µM | AC50 [8] 12.6 µM | AC50 [9] 1.33 µM | AC50 (Paired box protein Pax-8) 3.12 µM | AC50 [10] 27.8 µM | AC50 [11] 45.6 µM | AC50 [4] 15.4 µM | AC50 [12] 49.4 µM | AC50 [5] 1.52 µM

Cc1cc2cc(CCNC(=O)c3cccs3)c(O)nc2cc1C
active: AC50 [13] 26 µM

CN1c2ccc(-c3ccc(F)cc3)cc2[C@H]2[C@H](CCN2C(=O)Nc2ccc(F)cc2)[C@H]1CO
active: AC50 [14] 18.6 µM | AC50 [15] 18.4 µM | AC50 [16] 24.3 µM

CC[n+]1ccc(/C=C/c2ccc(N(C)C)cc2)c2ccccc21
inactive: IC50 [19] 24.6 µM
active: AC50 [17] 13.4 µM | CC50 [18] 49.2 µM | IC50 [20] 36.1 µM | AC50 [21] 2.21 µM | IC50 (Nonstructural protein 1) 9.07 µM

Cc1ccc(C)c(NC(S)=NNC(=O)c2csc(C)c2C)c1
inactive: IC50 [19] > 122 µM

CC(C)N1C[C@H](C)[C@@H](CN(C)CC2CCOCC2)Oc2c(NC(=O)c3ccncc3)cccc2C1=O
inconclusive: IC50 [22] 5.83 µM

CC(=O)C(=CNc1cc(-c2ccc(C)cc2)nn1-c1ccccc1)C(C)=O
active: AC50 [13] 26 µM

CC(C)N1C[C@@H](CN(C)Cc2ccc(Cl)cc2)Oc2c(NC(=O)c3ncn[nH]3)cccc2C1=O
active: AC50 [23] 5.99 µM
